In publication PMC7076013 (Scientific Reports, 2020):

Legend:
A375, human melanoma [1] = assay: CV (crystal violet) cell viability, A375; type: cell-based; details: for IC50: 48 h; for Selectivity index A375: IC50 macrophages / IC50 cancer
Method: (§1) Both melanoma and colon cancer are tumor types tightly connected with inflammation, while the expression of COX-2 in the selected cell lines was highly variable. Since a lot of discrepancies were found in the literature concerning the expression of this enzyme[5],[48]–[53], both COX-1 and COX-2 expression was analyzed by Western blot. […] The cells were treated with a wide range of doses of 4a–c, 5, and 6 for 48 h and cell viability was determined by MTT (3-(4,5-dimethylthiazol-2-yl)-2,5-diphenyltetrazolium bromide) and CV (crystal violet) assays. The obtained IC50 values were similar for both assays (Table 1).
(§2) Reagents were obtained from Sigma (St. Louis, MO) unless indicated otherwise. Annexin V - FITC (AnnV) was acquired from Biotium (Hayward, CA) and Apostat from R&D (R&D S ystems, Minneapolis, MN USA). […] After being detached b y tr ypsinization, cells were seeded in defined number as follows: 2.5 × 10^3 cells/well in 96-well plates for viability assessment and 2 × 10^4 cells/well in 24-well plates for flow cytometry. Peritoneal resident […]
(§3) for Biolo gical Research “Siniša Stanković” b y peritoneal lav age with an ice- cold phosphate buffer solution (PBS). The handling of animals and protocol for obtaining cells is in agreement with the rules of the European Union and approved by the Institutional Animal Care and Use Committee at IBISS (02- 09/1 6). Cells were counted and seeded in 96-well plates and incubat ed overnight. Before treatment, non- adherent cells were removed. Compounds 4a- c, 5 and 6 were dissolved in DMSO and stored at −20 °C for a m onth. Working solutions were freshl y prepared in 10% FCS-RPMI-1640. Controls were treated with culture medium containing the equivalent […]
(§4) 3.2. Cell viability tests.
(§5) The number of viable cel ls in culture was estimated by the MTT (3-(4,5- dimethylthiazol- 2-yl ) - 2,5- diphenyltetrazolium bromide) and CV (crystal violet) tests. Cells were incubated in the presence of compounds 4a- c, 5 and 6 for 48 h, then the viability was measured as described.4 […]
(§6) The results were ex pressed as a p er centage of a v alue obtained for the untr eated control cells that was arbitrarily set to be 100%. A non- linear regression analysis of obtained results was done b y using Gr aphPad Prism software to calculat e IC50 values. […]

[2] = test system: HCT116, human colon carcinoma; assay: CV (crystal violet) cell viability, HCT116; type: cell-based; details: for IC50: 48 h; for Selectivity index HCT116: IC50 macrophages / IC50 cancer
Method: as §1, §2, §3, §4, §5, §6

[3] = test system: SW480, human colon carcinoma; assay: MTT cell viability, SW480; type: cell-based; details: 48 h
Method: as §1
(§7) Reagents were obtained from Sigma (St. Louis, MO) unless indicated otherwise. […]
S ystems, Minneapolis, MN USA). […] After being detached b y tr ypsinization, cells were seeded in defined number as follows: 2.5 × 10^3 cells/well in 96-well plates for viability assessment and 2 × 10^4 cells/well in 24-well plates for flow cytometry. […]
(§8) Before treatment, non- adherent cells were removed. Compounds 4a- c, 5 and 6 were dissolved in DMSO and stored at −20 °C for a m onth. Working solutions were freshl y prepared in 10% FCS-RPMI-1640. Controls were treated with culture medium containing the equivalent […]
as §4, §5, §6

A375, human melanoma [4] = assay: MTT cell viability, A375; type: cell-based; details: 48 h
Method: as §1
as §2, with “cytometry.” for “cytometry. Peritoneal resident”
as §8, with “Committee at IBISS (02- 09/1 6). Cells were counted and seeded in 96-well plates and incubat ed overnight. Before” for “Before”
as §4, §5, §6

[5] = test system: CT26CL25, mouse colon carcinoma; assay: MTT cell viability, CT26CL25; type: cell-based; details: 48 h
Method: as §1
as §2, with “cytometry.” for “cytometry. Peritoneal resident”
as §8, with “Committee at IBISS (02- 09/1 6). Cells were counted and seeded in 96-well plates and incubat ed overnight. Before” for “Before”
as §4, §5, §6

518A2, human melanoma = assay: CV (crystal violet) cell viability, 518A2; type: cell-based; details: for IC50: 48 h; for Selectivity index 518A2: IC50 macrophages / IC50 cancer
Method: as §1, §2, §3, §4, §5, §6

[6] = test system: B16, mouse solid melanoma; assay: MTT cell viability, B16; type: cell-based; details: 48 h
Method: as §1
as §2, with “cytometry.” for “cytometry. Peritoneal resident”
as §8, with “Committee at IBISS (02- 09/1 6). Cells were counted and seeded in 96-well plates and incubat ed overnight. Before” for “Before”
as §4, §5, §6

ovine COX-1 = target: T1, ovine COX-1 (Ovis aries, UniProt P05979); assay: COX Fluorescent Inhibitor Screening Assay, COX-1; type: biochemical; details: ovine COX-1, Cayman kit 700100
T1 construct: purchased Cayman Chemical Item No. 700100 (assay kit)
T1 sequence (P05979 25-600): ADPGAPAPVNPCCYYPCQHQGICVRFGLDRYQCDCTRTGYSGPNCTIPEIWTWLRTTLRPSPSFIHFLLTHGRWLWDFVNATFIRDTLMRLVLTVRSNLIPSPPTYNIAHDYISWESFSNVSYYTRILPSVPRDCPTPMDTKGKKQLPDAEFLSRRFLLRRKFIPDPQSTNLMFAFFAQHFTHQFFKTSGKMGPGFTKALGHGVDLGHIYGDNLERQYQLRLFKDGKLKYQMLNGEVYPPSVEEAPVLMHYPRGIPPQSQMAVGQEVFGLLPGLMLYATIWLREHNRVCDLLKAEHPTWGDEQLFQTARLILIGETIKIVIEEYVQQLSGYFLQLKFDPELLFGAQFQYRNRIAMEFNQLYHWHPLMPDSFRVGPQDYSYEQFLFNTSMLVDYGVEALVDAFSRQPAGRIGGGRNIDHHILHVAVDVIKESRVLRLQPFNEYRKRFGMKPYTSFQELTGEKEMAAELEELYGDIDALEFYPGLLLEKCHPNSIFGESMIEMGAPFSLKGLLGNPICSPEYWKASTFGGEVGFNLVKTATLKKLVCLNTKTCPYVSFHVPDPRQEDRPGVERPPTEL
Method: The synthesized compounds were tested in vitro for their potential to inhibit ovine COX-1 and human recombinant COX-2.
*All compounds were measured with the Cytation 5 plate reader and the "COX Fluorescent Inhibitor […]
chemi cals, USA) " according to the manufacturer's
Error bars indicate standard error mean (SEM) obtained from two measurements at each concentration.
(1 picture or pasted object on this page, not shown here)

[7] = test system: SW620, human colon carcinoma; assay: CV (crystal violet) cell viability, SW620; type: cell-based; details: for IC50: 48 h; for Selectivity index SW620: IC50 macrophages / IC50 cancer
Method: as §1, §7
S ystems, Minneapolis, MN USA). […] After being detached b y tr ypsinization, cells were seeded in defined number as follows: 2.5 × 10^3 cells/well in 96-well plates for viability assessment and 2 × 10^4 cells/well in 24-well plates for flow cytometry. Peritoneal resident […]
as §3, §4, §5, §6

[8] = test system: CT26CL25, mouse colon carcinoma; assay: CV (crystal violet) cell viability, CT26CL25; type: cell-based; details: for IC50: 48 h; for Selectivity index CT26CL25: IC50 macrophages / IC50 cancer
Method: as §1, §2, §3, §4, §5, §6

[9] = test system: B16F10, mouse metastatic melanoma; assay: CV (crystal violet) cell viability, B16F10; type: cell-based; details: for IC50: 48 h; for Selectivity index B16F10: IC50 macrophages / IC50 cancer
Method: as §1, §2, §3, §4, §5, §6

Row | Substance | IC50 (A375, human melanoma [1]) [µM] | IC50 [2] [µM] | IC50 [3] [µM] | IC50 (A375, human melanoma [4]) [µM] | IC50 [5] [µM] | IC50 (518A2, human melanoma) [µM] | IC50 [6] [µM] | IC50 (ovine COX-1) [µM] | IC50 [7] [µM] | IC50 [8] [µM] | IC50 [9] [µM] | Selectivity index A375 (A375, human melanoma [1]) | Selectivity index HCT116 [2] | Selectivity index 518A2 (518A2, human melanoma) | Selectivity index SW620 [7] | Selectivity index CT26CL25 [8] | Selectivity index B16F10 [9]
1 | 4-[4-(methylnitrooxy)phenyl]-3-(1,2-dicarba-closo-dodecaboranyl)furan-2(5 H)-one [Compound 5] | 4.7 ± 0.3 | 9.95 ± 0.95 | 16.6 ± 1.01 | 4.25 ± 1.65 | 31.4 ± 3.27 | 5.5 ± 0.57 | 10.1 ± 0.4 | > 100 | 10.8 ± 0.21 | 29.4 ± 2.12 | 7.65 ± 0.26 | 7.9 | 3.7 | 6.7 | 3.5 | 1.3 | 4.8
2 | R,S-7-(2-oxo-4-(4-sulfamoylphenyl)-2,5-dihydrofuran-3-yl)-7,8-dicarba-nido-dodeca-hydroundecaborate(–1) sodium [Compound 6] | > 50 | > 50 | > 50 | > 50 | > 50 | 49.7 ± 0.42 | > 50 | > 100 | > 50 | > 50 | > 50 |  |  |  |  |  | 

Second part, led by results:

Row | IC50 (A375, human melanoma [1]) [µM] | IC50 [2] [µM] | IC50 [3] [µM] | IC50 (A375, human melanoma [4]) [µM] | IC50 [5] [µM] | IC50 (518A2, human melanoma) [µM] | IC50 [6] [µM] | IC50 (ovine COX-1) [µM] | IC50 [7] [µM] | IC50 [8] [µM] | IC50 [9] [µM] | Substance | Selectivity index A375 (A375, human melanoma [1]) | Selectivity index HCT116 [2] | Selectivity index 518A2 (518A2, human melanoma) | Selectivity index SW620 [7] | Selectivity index CT26CL25 [8] | Selectivity index B16F10 [9]
3 | 10.5 ± 0.75 | 19.2 ± 1.46 | 24.2 ± 1.05 | 17.9 ± 1.26 | 28.4 ± 2.46 | 41.2 ± 2.12 | 26.1 ± 2.49 | > 100 | 44.4 ± 1.77 | 29.2 ± 2.86 | 26.5 ± 2.62 | 4-[4-(hydroxymethyl)phenyl]-3-(1,2-dicarba-closo-dodecaboranyl)furan-2(5H)-one [Compound 4c] | 6.3 | 3.4 | 1.6 | 1.5 | 2.3 | 2.5
4 | 14.1 ± 0.75 | 35.9 | 42.5 | 16.9 ± 1.35 | 38.1 ± 0.9 | 14.8 ± 0.92 | 18 ± 1.71 | > 100 | 21.8 ± 0.64 | 36.1 ± 1.25 | 26.6 ± 2.62 | 4-[4-(methylsulfonyl)phenyl]-3-(1,2-dicarba-closo-dodecaboranyl)furan-2(5H)-one [Compound 4b] | 4.7 | 1.8 | 4.5 | 3.0 | 1.8 | 2.5
5 | 16 ± 1.65 | 12.8 ± 0.5 | 22.8 ± 0.7 | 20.2 ± 1.26 | 42.6 ± 3.17 | 21.4 ± 0.42 | 30.8 ± 2.81 | > 100 | 24.8 ± 0.35 | 37.2 ± 2.21 | 25.4 ± 2.41 | 4-phenyl-3-(1,2-dicarba-closo-dodecaboranyl)furan-2(5 H)-one [Compound 4a] | 3.1 | 3.8 | 2.3 | 2.0 | 1.3 | 1.9
